Laboratory results as given in ChEMBL document CHEMBL3507680, “University of Dundee, Gates Library screen for HepG2 cell viability”.

Test: Human HepG2 cell viability assay in 384 well format
Type: toxicity, cell-based
Set-up: dose 125 nL, time 70.5 hour; cytotoxicity at 70.5 h: concentration not given beside the values
Details: HepG2 cells, read-out: Inhibition

| Compound | cytotoxicity at 70.5 h [%] |
| --- | --- |
| CCN1CCC2(CC1)NC(=O)c1cc(Br)ccc1-n1nnnc12 | -5.39 |
| O=C(NCc1cccnc1)N1CCn2c(Cn3cccn3)cnc2C1 | -0.141 |
| CCc1ccc(C(=O)N2CCC(c3nncn3CC)CC2)s1 | -7.92 |
| CN(C)c1cccc(C(=O)Nc2cn(C)c(=O)n(C)c2=O)c1 | -3.1 |
| c1cncc(N2CCCC3(CN(Cc4cccs4)CCO3)C2)c1 (stereo not given) | 9.99 |
| O=C1CCC2(CCN(Cc3cc(F)cc(F)c3)CC2)CN1CCO | -1.2 |
| CCc1cc(O)nc(C2CCCN2C(=O)c2cc(C)no2)n1 (stereo not given) | 8.47 |
| CC(C)NC(=O)NCc1cc(-c2ccco2)n(CC(F)(F)F)n1 | -5.8 |
| O=C(O)COc1ccccc1CN1CCCC1c1ccncn1 (stereo not given) | -6.02 |
| Cc1c(C(=O)N2CCN(C)[C@@H]3CS(=O)(=O)C[C@@H]32)[nH]c2ccc(F)cc12 | -1.69 |
| CCC(C)NC(=O)c1snnc1-c1ccc(OC)cc1 (stereo not given) | 0.408 |
| CCc1nc(NC(=O)NCCc2scnc2C)nn1C | 16.5 |
| Nc1cc(C(=O)N2CCOC(Cc3cccc(C(F)(F)F)c3)C2)ccn1 (stereo not given) | -7.49 |
| O=C(NCc1cncc2c1CCN(Cc1cccs1)C2)C1CC1 | -13.8 |
| CCN(CC(F)(F)F)C(=O)C1CCCN(Cc2ccno2)C1 (stereo not given) | -7.36 |
| Cc1nnc2n1CCN(CC(O)CN1CCC(C)CC1)C2 (stereo not given) | -2.86 |
| Cc1nc(N2CCC(C(O)c3nccn3C)CC2)c2c(C)noc2n1 (stereo not given) | 20.2 |
| COCCN1C(=O)CCC12CCCN(Cc1nccs1)CC2 (stereo not given) | -6.77 |
| Fc1cnc(N2CCOC3(CCN(Cc4ccsc4)CC3)C2)nc1 | 8.85 |
| CN(C)CC(=O)N1CC2(CCN(C(=O)Nc3ccccc3)C2)C1 | 22.9 |
| COCCCNC(=O)N1CCN(C(=O)c2nsc3ccccc23)CC1 | -18.1 |
| COc1ccc2[nH]cc(C(=O)N3C[C@@H](O)[C@H](NS(C)(=O)=O)C3)c2c1 | -6.21 |
| Cc1ccc(C)c(OC(C)C(=O)Nc2cccnc2)c1 (stereo not given) | -3.32 |
| Cc1csc(NC(=O)c2cnc(C3CCNCC3)cn2)n1 | -11.9 |
| Cc1ncc2c(n1)CN(C(C(N)=O)c1ccccc1)CC2 (stereo not given) | -7.87 |
| CCC(C)(CC(=O)OC)NCc1noc(C)n1 (stereo not given) | 26.6 |
| c1ccc(SCCN2CCCC(Cn3ccnc3)C2)cc1 (stereo not given) | -5.94 |

| Compound | cytotoxicity at 70.5 h [%] |
| --- | --- |
| CCc1nc(CN2CCCN(C(=O)COCC3CC3)CC2)cs1 | -12.1 |
| CCN1C[C@H]2[C@@H](C1)N(C(=O)Cc1ccsc1)CC[C@H]2OC | -7.9 |
| Cn1cc(CN2C[C@@H]3CCC[C@@H](OCc4cccnc4)[C@@H]3C2)cn1 | 3.45 |
| COc1c(CNC2CCN(C(=O)C(C)C)CC2)c(C(C)C)nn1C | 19.1 |
| O=C1c2cnc(N3CCOCC3)nc2CN1C1CCS(=O)(=O)C1 (stereo not given) | 5.93 |
| O=C(c1cscn1)N1CCC2(CCN(Cc3nccs3)C2)CC1 | -12.2 |
| Cc1nn(C)c(N2CCOCC2)c1CNC(C)c1cccnc1 (stereo not given) | -8.78 |
| CC(NC(=O)CCn1cccn1)c1cccs1 (stereo not given) | -0.167 |
| FC(F)(F)Sc1ccc(NCc2nnc(C3CC3)o2)cc1 | 1.88 |
| Cc1cc(C)n(CC(=O)N2C[C@@H]3CC[C@H](C2)N(CC2CCC2)C3)c(=O)n1 | 24.1 |
| COCCN(C)C[C@@H]1CN(C(=O)c2ccc3c(c2)OCO3)C[C@@H]1CO | -12.8 |
| O=C(c1[nH]nc(C2CC2)c1Cl)N1CCCC1 | 3.72 |
| CCCN1CCCN(S(=O)(=O)c2cnc3onc(C)c3c2)CC1 | 2.21 |
| CC(C)(O)CCc1cccc(C(=O)N2CCC[C@H]2CN2CCCC2)c1 | 32.8 |
| Cc1cc(N2CCCC3(CN(C)C(=O)O3)C2)c2cc3c(cc2n1)OCO3 (stereo not given) | 19.1 |
| Cc1ncc2c(n1)CCCC2NC(=O)c1ccc(Cn2cccn2)cc1 (stereo not given) | -5.6 |
| COc1ccc(-c2cc(-c3nc(CN4CCN(C)CC4)no3)[nH]n2)cc1 | -5.68 |
| O=C(NCCN1CCCC1)C1(c2ccc(Cl)cc2)CCOCC1 | -3 |
| c1cncc(COCC2CN(Cc3ccco3)Cc3nccn3C2)c1 (stereo not given) | -9.74 |
| O=C1CO[C@H]2CN(S(=O)(=O)c3ccccc3)C[C@H]2N1c1ccccc1 | -8.37 |
| Cc1nn(C)c2nc(N(CCN(C)C)C3CCCC3)sc12 | 2.63 |
| O=C(c1ccc(=O)[nH]n1)N1CCCC(O)(CN2CCC(F)(F)CC2)CC1 (stereo not given) | -8.65 |
| CC(C)c1nc(CN(C)Cc2ncccc2C(=O)O)cs1 | 4.17 |
| O=C(NCCN1CCOCC1)c1cc(-c2ccc(Cl)s2)[nH]n1 | -1.44 |
| CN1CCc2onc(Cn3cccc3)c2C1 | -0.902 |
| COc1ccccc1C(C)CC(=O)N1CCN(S(N)(=O)=O)CC1 (stereo not given) | -3.69 |
| OC(CN1CCN(CC2CC2)CC1)c1ccc(Br)cc1 (stereo not given) | -2.6 |

| Compound | cytotoxicity at 70.5 h [%] |
| --- | --- |
| c1ccc(N2CCCC2)c(NCc2ccncc2)c1 | -39.9 |
| NC(=O)c1ccc(S(=O)(=O)NC2CCN(Cc3ccccc3)C2=O)cc1 (stereo not given) | -8.89 |
| Cc1ccccc1CS(=O)(=O)NCCCN1CCCC1 | -2.2 |
| O=C(c1ccc(F)c(Cl)c1)N1C[C@@H]2CC[C@H](C1)N(Cc1ccccc1)C2 | -5.41 |
| Cc1nc(NC(=O)CCc2c(C)nc3cc(O)nn3c2C)sc1C | -16.5 |
| Cc1c(C(=O)NC2=NCCS2)cnn1-c1ccc(Br)cc1 | -15 |
| O=C(NC1CCCCC1)N1CCCC1c1nnc2n1CCNC2 (stereo not given) | 19.4 |
| COc1ccc(C(=O)N2CCN(CCO)CC2)c(F)c1 | -4.32 |
| O=c1[nH]c(-c2cccnc2)nc2c1CCN(S(=O)(=O)N1CCCC1)C2 | -12 |
| O=C(CCc1nc2cc(Br)cnc2[nH]1)NCCCN1CCOCC1 | -17.4 |
| CC(C)CSCCCNC(=O)C1CCOCC1 | -5.98 |
| CCN(CCNS(=O)(=O)N1CCOCC1)C(=O)OC(C)(C)C | 30.7 |
| c1csc(CN2CCn3c(Cn4cncn4)cnc3C2)n1 | -17.2 |
| O=C1[C@H]2CN(S(=O)(=O)C3CC3)C[C@H]2CN1Cc1cccnc1 | -8.9 |
| CC(C)CCN(C(=O)CCn1cc(S(N)(=O)=O)cn1)C1CC1 | -1.68 |
| Cc1cc(NCCO)nc2[nH]nc(N)c12 | -14.9 |
| Cn1nccc1NC(=O)Cn1ccc(-c2ccc3c(c2)OCO3)n1 | -22.6 |
| CC(C)Nc1ncnc2c1CCN(C(=O)Cc1cccs1)CC2 | -7.55 |
| O=C(COc1ccccc1)N1CCC[C@]2(C[C@H](OCC3CC3)CO2)C1 | -7.58 |
| CC1CCN(CCCNC(=O)c2ccc(N(C)S(C)(=O)=O)cc2Cl)CC1 | -4.93 |
| O=C(NC[C@]1(O)CCN(Cc2ccsc2)C[C@H]1O)c1c[nH]cn1 | -9.1 |
| O=C(c1cn(-c2ccccc2C(F)(F)F)nn1)N1CCSCC1 | -15.5 |
| CC(=O)Nc1ccsc1C(=O)N1CC[C@@H]2CC[C@H](C1)N2C | -6.78 |
| CNc1cc2c(nn1)CCN(C(=O)c1cccc3c1OCCO3)C2 | -0.154 |
| CC(=O)Nc1ccc(CNCc2cccnc2N(C)C)cc1 | 1.4 |
| CCS(=O)(=O)N1C[C@H]2CN(Cc3cccc(C)c3)C(=O)[C@H]2C1 | -10.5 |
